Measured values as given in patent US20190365843A1, “Antimicrobial Activity of Bioactive Compounds and Their Derivatives” (priority 2018, published 2019).

What was measured:
Pseudomonas sp. = assay: Agar diffusion growth inhibition zone, Pseudomonas sp.; assay type: cell-based, Pseudomonas species; settings: Pseudomonas
Protocol: Agar well diffusion method is widely used to evaluate the antimicrobial activity of plants or other synthetic products. The suspension (microbial inoculum) was used to inoculate into Muller Hinton Agar Petri plates by lawn culture. Well (diameter 6 mm) were punched in the agar by sterile borer and filled with 50 μl of dissolved extracts. Plates were incubated in incubator at 37° C. for 24 hours and measured the growth inhibition zone diameters in mm compared with that of control (DMSO) showing no growth. The antimicrobial agent diffuses in the agar medium and inhibits the growth of the microbial strain tested (Valgas et al., (2016) Methods for in vitro evaluating antimicrobial activity: A review. Journal of Pharmaceutical Analysis. 6(2):71-9).
Similar to the procedure used in Agar well diffusion method, the suspension (microbial inoculum) was used to inoculate into Muller Hinton Agar Petri plates by lawn culture. Then, filter paper discs (about 6 mm in diameter), containing the test compound at a desired concentration, were placed on the agar surface. The Petri dishes were incubated under suitable incubation conditions. Generally, antimicrobial agent diffuses into the agar and inhibits germination and growth of the test microorganism and then the diameters of inhibition growth zones are measured (Valgas et al., (2007) Screening methods to determine antibacterial activity of natural products. Brazilian Journal of Microbiology. 38:369-80; Balouiri M et al., (2016) Methods for in vitro evaluating antimicrobial activity: A review. Journal of Pharmaceutical Analysis. 6(2):71-9).

Proteus sp. = assay: Agar diffusion growth inhibition zone, Proteus sp.; assay type: cell-based, Proteus species; settings: Proteus sp.; 150 mg; 6 mm = no activity
Protocol: (§1) Among the bacterial agents tested Gram positive and Gram negative bacterial groups represented by Staphylococcus aureus and Enterococcus species and pathogenic members of Enterobacteriaceae, Vibronaceae, Aeromonadaceae, Pseudomonadaceae were tested. Freshly sub-cultured bacterial strains were inoculated into peptone water and incubated for 4 hours at 37° C. and adjusted to a turbidity of 0.5 (Gram Negative Bacilli), 1 (Gram Positive Cocci) and 4 (Pus cells, GNB, & few Budding yeast cells) Mc Farland standards (10^8 CFU/ml) respectively.
(§2) The different bioactive compounds and their derivatives were dissolved and diluted with solvents (DMSO), number of subsequent dilutions was performed to obtain different concentrations of the bioactive compounds and their derivatives. (Working Concentrations).
(§3) Agar well diffusion method is widely used to evaluate the antimicrobial activity of plants or other synthetic products. The suspension (microbial inoculum) was used to inoculate into Muller Hinton Agar Petri plates by lawn culture. Well (diameter 6 mm) were punched in the agar by sterile borer and filled with 50 μl of dissolved extracts. Plates were incubated in incubator at 37° C. for 24 hours and measured the growth inhibition zone diameters in mm compared with that of control (DMSO) showing no growth.
(§4) The bioactive compounds were tested with desired concentrations in 6 mm filter paper discs (Whatman, no. 3) were impregnated with 10 μL of each of the different dilutions. The discs were allowed to remain at room temperature until complete diluent evaporation and kept under refrigeration until ready to be used. 10 μL of diluents used to products were used as control. Tests were performed by Agar disk-diffusion testing method, which is the official method used in many clinical microbiology laboratories for routine antimicrobial susceptibility testing.
(§5) Similar to the procedure used in Agar well diffusion method, the suspension (microbial inoculum) was used to inoculate into Muller Hinton Agar Petri plates by lawn culture. Then, filter paper discs (about 6 mm in diameter), containing the test compound at a desired concentration, were placed on the agar surface. The Petri dishes were incubated under suitable incubation conditions.
(§6) Bioactive compounds showing zone of inhibition beyond the size of 6 mm are considered to be having an anti-microbial activity.

Vibrio cholera = assay: Agar diffusion growth inhibition zone, Vibrio cholera; assay type: cell-based, Vibrio cholerae; settings: Vibrio cholerae
Salmonella typhimurium = assay: Agar diffusion growth inhibition zone, Salmonella typhimurium; assay type: cell-based; settings: Salmonella enterica, 6 mm = no activity
Protocol: as §1, §2, §3, §4, §5, §6

Citrobacter sp. = assay: Agar diffusion growth inhibition zone, Citrobacter sp.; assay type: cell-based, Citrobacter species; settings: 6 mm = no activity
Protocol: as §1, §2, §3, §4, §5, §6

EAEC = assay: Agar diffusion growth inhibition zone, EAEC; assay type: cell-based, Enteroaggregative E. coli; settings: for zone of inhibition at 100 mg/mL / zone of inhibition at 150 mg/mL: Escherichia coli, 6 mm = no activity
Protocol: as §1, §2, §3, §4, §5, §6

E. coli ATCC 25922 = assay: Agar diffusion growth inhibition zone, E. coli ATCC 25922; assay type: cell-based; settings: Escherichia coli, 6 mm = no activity; for zone of inhibition at 100 mg/mL: ATCC25922, 100 mg; for zone of inhibition at 150 mg/mL: ATCC25922, 150 mg
Protocol: as §1, §2, §3, §4, §5, §6

Aeromonas sp. = assay: Agar diffusion growth inhibition zone, Aeromonas sp.; assay type: cell-based, Aeromonas species; settings: Aeromonas sp., 6 mm = no activity
Protocol: as §1, §2, §3, §4, §5, §6

Enterococcus sp. = assay: Agar diffusion growth inhibition zone, Enterococcus sp.; assay type: cell-based, Enterococcus species; settings: 6 mm = no activity
Protocol: as §1, §2, §3, §4, §5, §6

ETEC = assay: Agar diffusion growth inhibition zone, ETEC; assay type: cell-based, Enterotoxigenic E. coli; settings: for inhibition of growth: ETEC; for zone of inhibition at 100000 µg/disc / zone of inhibition at 150000 µg/disc: Escherichia coli
Candida abicans = assay: Agar diffusion growth inhibition zone, Candida abicans; assay type: cell-based, Candida albicans; settings: 6 mm = no activity
Protocol: as §1, §2, §3, §4, §5, §6

Pleisiomonas sp. = assay: Agar diffusion growth inhibition zone, Pleisiomonas sp.; assay type: cell-based, Pleisiomonas species; settings: for zone of inhibition at 100 mg/mL / zone of inhibition at 150 mg/mL: Pleisiomonas sp., 6 mm = no activity
Protocol: as §1, §2, §3, §4, §5, §6

Klebsiella sp. = assay: Agar diffusion growth inhibition zone, Klebsiella sp.; assay type: cell-based, Klebsiella species; settings: 6 mm = no activity
Protocol: as §1, §2, §3, §4, §5, §6

Shigella sp. = assay: Agar diffusion growth inhibition zone, Shigella sp.; assay type: cell-based, Shigella species; settings: Shigella
S. aureus = assay: Agar diffusion growth inhibition zone, S. aureus; assay type: cell-based, Staphylococcus aureus; settings: Staphylococcus aureus, 6 mm = no activity
Protocol: as §1, §2, §3, §4, §5, §6

CCOC(=O)Oc1ccc(/C=C/C(=O)COC(=O)/C=C/c2ccc(OC(=O)OCC)c(OC)c2)cc1OC [compound 7, Diethylcalebin-A dicarbonate]
zone of inhibition at 100000 µg/disc (Pseudomonas sp.): 6 mm | zone of inhibition at 150000 µg/disc (Pseudomonas sp.): 6 mm | zone of inhibition at 150 mg/mL (Proteus sp.): 6 mm | zone of inhibition at 100000 µg/disc (Vibrio cholera): 6 mm | zone of inhibition at 150000 µg/disc (Vibrio cholera): 6 mm | zone of inhibition at 100 mg/mL (Salmonella typhimurium): 6 mm | zone of inhibition at 150 mg/mL (Salmonella typhimurium): 6 mm | zone of inhibition at 100 mg/mL (Citrobacter sp.): 6 mm | zone of inhibition at 150 mg/mL (Citrobacter sp.): 6 mm | inhibition of growth (EAEC): inhibited | zone of inhibition at 100 mg/mL (EAEC): 9 mm | zone of inhibition at 150 mg/mL (EAEC): 9 mm | zone of inhibition at 100 mg/mL (E. coli ATCC 25922): 6 mm | zone of inhibition at 150 mg/mL (E. coli ATCC 25922): 6 mm | zone of inhibition at 100 mg/mL (Aeromonas sp.): 6 mm | zone of inhibition at 150 mg/mL (Aeromonas sp.): 6 mm | zone of inhibition at 100 mg/mL (Enterococcus sp.): 6 mm | zone of inhibition at 150 mg/mL (Enterococcus sp.): 6 mm | inhibition of growth (ETEC): significantly inhibited the growth | zone of inhibition at 100000 µg/disc (ETEC): 10 mm | zone of inhibition at 150000 µg/disc (ETEC): 10 mm | zone of inhibition at 100 mg/mL (Candida abicans): 6 mm | zone of inhibition at 150 mg/mL (Candida abicans): 6 mm | zone of inhibition at 100 mg/mL (Pleisiomonas sp.): 10 mm | zone of inhibition at 150 mg/mL (Pleisiomonas sp.): 10 mm | inhibition of growth (Pleisiomonas sp.; Plesiomonas species): inhibited | zone of inhibition at 100 mg/mL (Klebsiella sp.): 6 mm | zone of inhibition at 150 mg/mL (Klebsiella sp.): 6 mm | zone of inhibition at 100000 µg/disc (Shigella sp.): 6 mm | zone of inhibition at 150000 µg/disc (Shigella sp.): 6 mm | zone of inhibition at 100 mg/mL (S. aureus): 6 mm | zone of inhibition at 150 mg/mL (S. aureus): 6 mm

COc1cc(CCC(=O)/C=C(\N)CCc2ccc(O)c(OC)c2)ccc1O [compound 9, Amino- tetrahydrocurcumin]
zone of inhibition at 100000 µg/disc (Pseudomonas sp.): 6 mm | zone of inhibition at 150000 µg/disc (Pseudomonas sp.): 6 mm | zone of inhibition at 150 mg/mL (Proteus sp.): 6 mm | zone of inhibition at 100000 µg/disc (Vibrio cholera): 6 mm | zone of inhibition at 150000 µg/disc (Vibrio cholera): 6 mm | zone of inhibition at 100 mg/mL (Salmonella typhimurium): 6 mm | zone of inhibition at 150 mg/mL (Salmonella typhimurium): 6 mm | zone of inhibition at 100 mg/mL (Citrobacter sp.): 6 mm | zone of inhibition at 150 mg/mL (Citrobacter sp.): 6 mm | zone of inhibition at 100 mg/mL (EAEC): 6 mm | zone of inhibition at 150 mg/mL (EAEC): 6 mm | zone of inhibition at 100 mg/mL (E. coli ATCC 25922): 6 mm | zone of inhibition at 150 mg/mL (E. coli ATCC 25922): 6 mm | zone of inhibition at 100 mg/mL (Aeromonas sp.): 6 mm | zone of inhibition at 150 mg/mL (Aeromonas sp.): 6 mm | zone of inhibition at 100 mg/mL (Enterococcus sp.): 6 mm | zone of inhibition at 150 mg/mL (Enterococcus sp.): 6 mm | zone of inhibition at 100000 µg/disc (ETEC): 9 mm | zone of inhibition at 150000 µg/disc (ETEC): 9 mm | zone of inhibition at 100 mg/mL (Candida abicans): 6 mm | zone of inhibition at 150 mg/mL (Candida abicans): 6 mm | zone of inhibition at 100 mg/mL (Pleisiomonas sp.): 6 mm | zone of inhibition at 150 mg/mL (Pleisiomonas sp.): 6 mm | zone of inhibition at 100 mg/mL (Klebsiella sp.): 6 mm | zone of inhibition at 150 mg/mL (Klebsiella sp.): 6 mm | zone of inhibition at 100000 µg/disc (Shigella sp.): 6 mm | zone of inhibition at 150000 µg/disc (Shigella sp.): 6 mm | zone of inhibition at 100 mg/mL (S. aureus): 6 mm | zone of inhibition at 150 mg/mL (S. aureus): 6 mm

COc1cc(/C=C/C(=O)CC(=O)/C=C/c2ccc(OC(C)=O)c(OC)c2)ccc1OC(C)=O [compound 4, O,O′- Diacetylcurcumin]
zone of inhibition at 100000 µg/disc (Pseudomonas sp.): 6 mm | zone of inhibition at 150000 µg/disc (Pseudomonas sp.): 6 mm | zone of inhibition at 150 mg/mL (Proteus sp.): 6 mm | zone of inhibition at 100000 µg/disc (Vibrio cholera): 6 mm | zone of inhibition at 150000 µg/disc (Vibrio cholera): 6 mm | zone of inhibition at 100 mg/mL (Salmonella typhimurium): 6 mm | zone of inhibition at 150 mg/mL (Salmonella typhimurium): 6 mm | zone of inhibition at 100 mg/mL (Citrobacter sp.): 6 mm | zone of inhibition at 150 mg/mL (Citrobacter sp.): 6 mm | zone of inhibition at 100 mg/mL (EAEC): 6 mm | zone of inhibition at 150 mg/mL (EAEC): 6 mm | zone of inhibition at 100 mg/mL (E. coli ATCC 25922): 6 mm | zone of inhibition at 150 mg/mL (E. coli ATCC 25922): 6 mm | zone of inhibition at 100 mg/mL (Aeromonas sp.): 6 mm | zone of inhibition at 150 mg/mL (Aeromonas sp.): 6 mm | zone of inhibition at 100 mg/mL (Enterococcus sp.): 6 mm | zone of inhibition at 150 mg/mL (Enterococcus sp.): 6 mm | inhibition of growth (ETEC): significantly inhibited the growth | zone of inhibition at 100000 µg/disc (ETEC): 9 mm | zone of inhibition at 150000 µg/disc (ETEC): 9 mm | zone of inhibition at 100 mg/mL (Candida abicans): 6 mm | zone of inhibition at 150 mg/mL (Candida abicans): 6 mm | zone of inhibition at 100 mg/mL (Pleisiomonas sp.): 6 mm | zone of inhibition at 150 mg/mL (Pleisiomonas sp.): 6 mm | zone of inhibition at 100 mg/mL (Klebsiella sp.): 6 mm | zone of inhibition at 150 mg/mL (Klebsiella sp.): 6 mm | zone of inhibition at 100000 µg/disc (Shigella sp.): 6 mm | zone of inhibition at 150000 µg/disc (Shigella sp.): 6 mm | zone of inhibition at 100 mg/mL (S. aureus): 6 mm | zone of inhibition at 150 mg/mL (S. aureus): 6 mm
